# According to ChEMBL document CHEMBL1240460, “Design, synthesis and antifungal activity of isosteric analogues of benzoheterocyclic N-myristoyltransferase inhibitors” (2010):
# Assays:
# Type in all cases: functional
# Nannizzia gypsea = test: Antifungal activity against Microsporum gypseum by serial dilution method
# Aspergillus fumigatus = test: Antifungal activity against Aspergillus fumigatus by serial dilution method
# Trichophyton rubrum = test: Antifungal activity against Trichophyton rubrum by serial dilution method
# Candida albicans = test: Antifungal activity against Candida albicans by serial dilution method
# Cryptococcus neoformans = test: Antifungal activity against Cryptococcus neoformans by serial dilution method
# Candida parapsilosis = test: Antifungal activity against Candida parapsilosis by serial dilution method; conditions: Lodderomyces parapsilosis
# Candida tropicalis = test: Antifungal activity against Candida tropicalis by serial dilution method
Structure (SMILES),MIC80 (Nannizzia gypsea) [µg/mL],MIC80 (Aspergillus fumigatus) [µg/mL],MIC80 (Trichophyton rubrum) [µg/mL],MIC80 (Candida albicans) [µg/mL],MIC80 (Cryptococcus neoformans) [µg/mL],MIC80 (Candida parapsilosis) [µg/mL],MIC80 (Candida tropicalis) [µg/mL]
Fc1ccc(OCc2cc3c(OCCCNCc4cccnc4)cccc3[nH]2)cc1,32,> 128,128,> 128,128,,
c1ccc(SCc2cc3c(OCCCNCc4cccnc4)cccc3[nH]2)cc1,8,> 128,64,128,64,,
Clc1cccc(Cl)c1SCc1cc2c(OCCCNCc3cccnc3)cccc2[nH]1,4,> 128,16,64,64,,
O=C(Nc1cccc(F)c1)c1cc2c(OCCCNCc3cccnc3)cccc2[nH]1,32,> 128,64,128,128,,
O=C(Nc1ccc(Cl)cc1)c1cc2c(OCCCNCc3cccnc3)cccc2[nH]1,32,> 128,128,> 128,> 128,,
O=C(Nc1ccccc1)c1cc2c(OCCCNCc3cccnc3)cccc2[nH]1,32,> 128,64,> 128,> 128,,
O=C(Nc1ccc(F)c(F)c1)c1cc2c(OCCCNCc3cccnc3)cccc2[nH]1,16,> 128,32,> 128,128,,
O=C(Nc1ccccc1Cl)c1cc2c(OCCCNCc3cccnc3)cccc2[nH]1,2,> 128,128,> 128,> 128,,
Fc1ccccc1OCc1nc2c(OCCCNCc3cccnc3)cccc2o1,,> 64,,4,16,1,0.0625
Fc1ccc(OCc2nc3c(OCCCNCc4cccnc4)cccc3o2)cc1,,> 64,,16,16,1,1
c1ccc(OCc2nc3c(OCCCNCc4cccnc4)cccc3o2)cc1,,> 64,,16,64,1,0.25
Fc1ccc(OCc2nc3c(OCCCNCc4cccnc4)cccc3o2)c(F)c1,,> 64,,1,16,0.25,1
Fc1cccc(F)c1OCc1nc2c(OCCCNCc3cccnc3)cccc2o1,,> 64,,64,64,4,1
Fc1ccc(OCc2nc3c(OCCCNCc4cccnc4)cccc3o2)c(F)c1F,,> 64,,0.25,64,0.25,0.25
Fc1cc(F)c(OCc2nc3c(OCCCNCc4cccnc4)cccc3o2)c(F)c1,,64,,16,16,1,1
O=[N+]([O-])c1cccc(OCc2nc3c(OCCCNCc4cccnc4)cccc3o2)c1,,> 64,,> 64,> 64,4,0.25
CCOC(=O)c1cc2c(OCCCNCc3cccnc3)cccc2[nH]1,32,> 128,64,> 128,> 128,,
Fc1ccc(OCc2cc3c(OCCCNCc4cccnc4)cccc3[nH]2)c(F)c1,8,> 128,32,> 128,64,,
CCOC(=O)c1oc2cccc(OCCCNCc3cccnc3)c2c1C,4,> 64,4,1,64,4,1
Cc1c(COc2ccc(F)c(F)c2F)oc2cccc(OCCCNCc3cccnc3)c12,2,16,1,0.125,0.5,0.0625,0.125
OC(Cn1cncn1)(Cn1cncn1)c1ccc(F)cc1F [FLUCONAZOLE],16,> 64,1,0.25,1,4,4
